The text below walks through data of article PMC4234468 (PLoS ONE, 2014).

In test [1] the target is T1, HA-β2AR (Homo sapiens, UniProt P07550).
T1 construct: host or cells: HEK-293
Put plainly: whole-cell radioligand binding assay, [125I]-iodopindolol displacement, HA-β2AR. The following applies: HEK-293 cells expressing HA-β2AR alone or with IR.
Procedure: To establish a relationship between the luminescence/fluorescence signals generated by RLuc8 and GFP^2-tagged β2ARs and cell-surface receptor number, radioligand binding assays were carried out on whole cells as previously described [47]. […] An aliquot of cells (∼5×10^5) from each transfection was also transferred into a 60-mm dish for total luminescence/fluorescence measurements as described above. […] Determination of the radioactivity levels was performed in triplicate. Binding parameters were determined from displacement curves generated by a sigmoidal dose-response curve fit (GraphPad Prism 5.0). Receptor density (Bmax), expressed as the receptor number per cell, was calculated as previously described by Ramsay et al. [48]. Whole-cell radioligand binding assays were also performed with cells expressing β2AR alone or in combination with IR.

Test [2] deals with T1, HA-β2AR. Briefly: HA-β2AR internalization quantified by ELISA in HEK-293 cells. The format is cell-based. The procedure:
ELISA assays for the measurement of surface-expressed HA-β2AR and quantification of receptor internalization were performed as described previously. Briefly, HEK-293 cells were transiently transfected with either β2AR-RLuc8 alone or β2AR-RLuc8 and IR-GFP^2. One microgram of each receptor was used, and the total amount of cDNA used for transfection was kept uniform by adding empty pcDNA3.1 vector. […] After 48 h, cells were first subjected to a 2-h starvation period, and then were treated as required in HEPES-modified DMEM with 0.1% BSA for 30 min at 37°C before fixing with 4% paraformaldehyde for 20 min at 4°C. Cells were then washed 3 times in PBS and blocked (PBS containing 1% BSA) for 60 min at room temperature. Cells were kept at room temperature for all of the subsequent steps. First, cells were incubated for 2 h with anti-HA antibody at a 1∶600 dilution. After 3 washes, cells were incubated with anti-rat horseradish peroxidase-conjugated antibody at a 1∶1000 dilution. After extensive washing, the reaction was developed using the 3, 3′, 5, 5′-tetra-methylbenzidine (TMB) liquid substrate system. […] The absorbances were measured at 450 nm using the microplate reader Rosys Anthos 2010 (Anthos Labtec Instruments, Wals, Austria). […]
[…]. Data are expressed as the means ± S.E. from three independent experiments performed in triplicate. […]

For test [3], the system named is β2AR in epidermoid carcinoma A431 cells. Set-up: method as in PMID 14709719. The settings on record: cited from earlier work.
For test [4], the system named is β2AR and IR receptor complexes. Put plainly: BRET^2 saturation assay with agonist stimulation, β2AR and IR homo- and heteromers in HEK-293 cells. The following applies: data not shown. For orientation: BRET reads energy transfer from a luciferase to a nearby fluorophore.
In another test the test system is β2AR-RLuc. The following applies: β2AR-RLuc fusion construct; ref Vrecl et al. [47]; cited from earlier work.

insulin: the “competition for binding against [125I]-iodopindolol” value at HA-β2AR [1] is recorded as “neither competed for binding”. Besides, the figures for the “amount of surface-expressed β2AR lost to internalization in response to insulin” value (on HA-β2AR [2]; in test [3]) were about 15% and about 30%, respectively. The “β2AR internalization (ELISA, Figure S1)” value at HA-β2AR [2] (insulin 0.1 µM, 30 min, 37°C) was “did not induce marked β2AR internalization”. Also, in test [4], the “change in the BRET^2 signal on agonist stimulation” value is recorded as “did not promote any detectable change”.
On to `CC(C)NCC(O)c1ccc(O)c(O)c1` (stereo not shown) [isoproterenol, reference compound], for which the “change in the BRET^2 signal on agonist stimulation” value in test [4] was “did not promote any detectable change”.
The IC50 is the concentration at which inhibition is half-maximal. On to `CC(C)NCC(O)COc1cccc2[nH]ccc12` (stereo not shown) [pindolol], for which the IC50 with β2AR-RLuc was 0.94 ± 0.06 nM.
